Test results taken from paper PMC5119973 (Cancer Medicine, 2016).

Columns and labels:
[1] = system: BaF/3 cells expressing an imatinib‐resistant mutant KIT (557‐558del; T670I); assay: In vitro proliferation, BaF/3 cells expressing imatinib‐resistant mutant KIT; type: cell-based; settings: unpubl. data
[2] = system: HuLECs; settings: 100 nmol/L, 40 h, regorafenib data taken from ref 14; cited from earlier work
[3] = system: recombinant murine VEGFR2; settings: cited from earlier work
[4] = biological target: T1, FLT3 (Homo sapiens, UniProt P36888); assay: KINOMEscan active-site competitive binding assay; settings: slash = two separate measurements
T1 construct: purchased DiscoveRx (KINOMEscan service)

[5] = biological target: T2, FLT3^K663Q (Homo sapiens, UniProt P36888, K663Q); assay: KINOMEscan active-site competitive binding assay
T2 construct: purchased DiscoveRx

[6] = biological target: T3, PDGFRA (Homo sapiens, UniProt P16234); assay: KINOMEscan active-site competitive binding assay; settings: slash = two separate measurements
T3 construct: purchased DiscoveRx

[7] = biological target: T4, FLT3^D835H (Homo sapiens, UniProt P36888, D835H); assay: KINOMEscan active-site competitive binding assay
T4 construct: purchased DiscoveRx

T3 sequence (P16234 24-1089): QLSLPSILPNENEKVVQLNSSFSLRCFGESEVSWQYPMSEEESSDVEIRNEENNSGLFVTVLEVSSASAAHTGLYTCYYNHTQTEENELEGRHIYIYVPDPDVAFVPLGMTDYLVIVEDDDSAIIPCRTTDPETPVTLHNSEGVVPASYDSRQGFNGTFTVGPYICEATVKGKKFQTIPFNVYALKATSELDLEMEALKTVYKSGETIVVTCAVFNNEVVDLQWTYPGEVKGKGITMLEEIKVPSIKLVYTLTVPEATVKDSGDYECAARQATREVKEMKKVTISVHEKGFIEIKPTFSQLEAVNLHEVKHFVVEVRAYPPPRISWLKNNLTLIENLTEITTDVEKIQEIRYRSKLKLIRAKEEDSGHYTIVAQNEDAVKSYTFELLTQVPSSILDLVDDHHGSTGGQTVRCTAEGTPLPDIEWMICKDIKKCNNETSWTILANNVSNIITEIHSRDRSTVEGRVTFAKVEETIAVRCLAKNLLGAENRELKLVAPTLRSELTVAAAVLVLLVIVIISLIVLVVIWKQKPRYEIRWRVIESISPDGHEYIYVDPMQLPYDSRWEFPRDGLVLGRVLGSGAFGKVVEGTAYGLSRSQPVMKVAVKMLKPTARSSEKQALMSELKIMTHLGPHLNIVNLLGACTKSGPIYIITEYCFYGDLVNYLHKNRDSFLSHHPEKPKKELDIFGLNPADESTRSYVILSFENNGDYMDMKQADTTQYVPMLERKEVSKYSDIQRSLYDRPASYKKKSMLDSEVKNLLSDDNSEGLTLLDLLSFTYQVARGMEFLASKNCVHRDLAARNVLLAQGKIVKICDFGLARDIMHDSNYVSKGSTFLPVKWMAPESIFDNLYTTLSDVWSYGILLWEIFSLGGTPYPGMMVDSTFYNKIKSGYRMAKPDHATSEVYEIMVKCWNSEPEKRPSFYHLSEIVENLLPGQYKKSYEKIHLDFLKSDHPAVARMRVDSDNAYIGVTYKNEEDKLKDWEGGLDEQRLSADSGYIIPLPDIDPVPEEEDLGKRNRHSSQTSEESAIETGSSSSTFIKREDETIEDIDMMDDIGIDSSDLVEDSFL

CNC(=O)c1cc(Oc2ccc(NC(=O)Nc3ccc(Cl)c(C(F)(F)F)c3)c(F)c2)ccn1 [Regorafenib, reference compound]
Inhibition of proliferation [1]: potent inhibition
Inhibition of VEGF‐C‐induced migration [2]: inhibited
IC50 [3]: ~4 nM

NC(=O)c1cc(Oc2ccc(NC(=O)Nc3ccc(Cl)c(C(F)(F)F)c3)c(F)c2)cc[n+]1[O-] [M‐5]
Kd [4]: 2.6 nM
Kd [5]: 5.5 nM

CNC(=O)c1cc(Oc2ccc(NC(=O)Nc3ccc(Cl)c(C(F)(F)F)c3)c(F)c2)cc[n+]1[O-] [M‐2]
Kd [6]: 7.3 nM
Kd [7]: 120 nM
